Results from patent US6369299B1 (Regents of the University of Minnesota, priority 1999, dated 2002).

Experiments:
[1] = test system: plants; settings: cited from earlier work
[2] = test system: Medicago sativa cv. Regen SY; assay: atrazine tolerance: rooting and growth of sterile cuttings on sugar-free, hormone-free B5h medium; format: in vivo; settings: untransformed control (SY) plant cuttings, Magenta boxes
Text: Under these conditions plant growth depends on photosynthesis for production of energy and carbon.

[3] = test system: quinone-binding (QB) protein; settings: altered QB protein of atrazine resistant weeds; cited from earlier work

| SMILES | herbicidal activity [1] | atrazine concentration at which cuttings did not root or grow [2] [nM] | reduced affinity of altered QB protein for atrazine [3] [fold] |
| --- | --- | --- | --- |
| CCNc1nc(NC(C)C)[nH]c(=O)n1 [hydroxyatrazine] | no herbicidal activity |  |  |
| CCNc1nc(Cl)nc(NC(C)C)n1 [atrazine, 2-chloro-4-ethylamino-6-isopropylamino-1,3,5-s-triazine] |  | ≥ 500 | 1000 |
